# Entries after “also recorded” stand apart in the source; their conditions may differ.
# What was measured:
# [1] = system: Human umbilical cord vascular endothelial cells (HUVEC); assay: Experiment of growth: HUVEC cell number by WST-8 after 48 hrs; assay type: cell-based; conditions: for inhibition at 20000 µM: 20 mM, read-out: inhibition of growth to the control group; for antagonism of the growth inhibitory effect by D-glucose: co-existence of 20 mM D-glucose
# Procedure: Human umbilical cord vascular endothelial cells (HUVEC) were purchased as primary cultured cells from KURABO (Kurabo Co., Osaka, Japan) and the cells up to P8 were used in experiments. The cells were inoculated on a 96-well plate at a rate of 3000 cells/well, and allowed to stand in Humedia EG2 (Kurabo) overnight (37° C., 5% CO2). Next morning, the medium was replaced by 90 μl of 2% FBS-containing Humedia EB2 (Kurabo), to which was then added 10 μl of additive, and after a lapse of 48 hrs the number of cells was counted. No medium was exchanged during this period. In counting, a tetrazolium salt WST-8 was added to each well (0.5 mM), and after 2 hrs the absorbance was measured at 450 nm. The tetrazolium salt added was reduced with an intracellular dehydrogenase to yield formazan depending on the number of cells in the well. In advance, the absorbance at 450 nm was confirmed to show a linearity within the range of 500 to 12000 cells in the well.
# HUVEC = assay: 14C-glucose up-take in vascular endothelial cell; assay type: cell-based, human; conditions: sugars 20 mM (2 mM for 2DG), 48 hours; for effect on the glucose up-take of HUVEC: both culture media ([GLU]=0.1 mM and 4.5 mM), VEGF 10 ng/mL; for effect on the glucose up-take accelerated by VEGF: with VEGF 10 ng/mL
# Procedure: Most of the physiological actions of monosaccharides are likely to be caused by the structural similarity to D-glucose, and one of the mechanisms is considered to be an influence on glucose metabolism. Then, in order to elucidate the influence on metabolism, the effect of HUVEC on the glucose up-take was examined for FRU, ALO, PSI, ALL, 2DG, MAN, and GAL. ^14C-Glucose was added to a culture medium, and the incorporated amount after 48 hours was counted by a scintillation counter. HUVEC was inoculated on a 24-well plate at a rate of 12000 cells/well. The medium was allowed to stand in 400 μL of Humedia EB2+2% FBS overnight. Next day, the medium was replaced by a medium containing ^14C-glucose. The medium used in replacement was the total 400 μL/well of medium containing ^14C-glucose (360 μL)+saline/VEGF (20 μL)+saline/RS (20 μL). The stock solution of ^14C-glucose 100 Bq/μL saline was diluted 10-fold with 2% FBS-containing medium (glucose-free or low glucose) to give a culture medium of 10 Bq/μL. The experiment was carried out on a lower glucose medium (final concentration [GLU]=0.1 mM) and on a high glucose medium ([GLU]=4.5 mM). ^14C-glucose was added at 3600 Bq/well. Further, FRU: D-fructose, ALO: D-allose, PSI: D-psicose, ALL: allitol, 2DG: 2-deoxy glucose, MAN: D-mannose, or GAL: D-galactose was added to the medium as an additive at 20 mM (provided 2 mM for 2DC). Irritation for growth was also carried out with VEGF (10 ng/mL). After a lapse of 48 hours, the well was washed twice with PBS, to which was then added 200 μL of 2% Triton, of which 180 μL was used as a sample for scintillation counter. The incorporation of ^14C-glucose into the HUVEC cells was calculated from the count in each well in the unit of nmol/well and depicted in a graph.
# [2] = system: human endothelial cells and fibroblasts; assay: Experiment of luminal formation: concurrent culture, CD31 staining, area of the lumen; assay type: cell-based; conditions: for effect on the luminal formation: Example 1, 0.1-20 mM; for effect on the luminal formation of HUVEC: Example 2 (36 species), incubation for 10 days; for antagonism of the luminal formation inhibitory effect by D-glucose: co-existence of 20 mM D-glucose; for inhibition of the acceleration of luminal formation by VEGF: with VEGF
# Procedure: Using a concurrent culture system of human endothelial cells and fibroblasts planted on a 24-well plate (Kurabo Co., Osaka, Japan), the culture medium was replaced by culture media containing a variety of additives at the early stage of luminal formation. Every 3 days, the medium was exchanged with the additive; 10 day after incubation, the endothelial cell only was stained by using mouse anti-human CD31 antibody (Kurabo Co., Osaka, Japan), goat anti-mouse IgG AlkP Conjugate (Kurabo Co., Osaka, Japan), and BCPI (5-bromo-4-chloro-3-indolyl phosphate) (Kurabo Co., Osaka, Japan) to photograph. The visualized area of the lumen was measured by means of NIH image software.
# [3] = Basic safety tests (mutagenicity, biodegradable test, 3 acute toxicity tests); conditions: oral acute toxicity, skin and ophthalmic primary irritation, by a designated organ
# Description: The most important and highest hurdle in the development of approved drugs/quasi drugs or foods is to confirm safety of the rare sugar as a new substance. As the most basic safety tests, mutagenicity, biodegradable test and 3 acute toxicity tests (oral acute toxicity test, skin primary irritation test, ophthalmic primary irritation test) are decided. Since rare sugars are monosaccharides naturally occurring in very small quantities, it is necessary to examine exactly, though they are expected to be safe. We requested of a designated organ to examine the basic safety test on 3 species of rare sugars, i.e., D-psicose, D-allose and allitol. As a result, it was confirmed that there was no problem in any of the rare sugars.
# [4] = Example 2 (36 species), 48 hours
compound,measurement,setting,value
"O=C[C@H](O)[C@H](O)[C@H](O)[C@H](O)CO [A, D-allose]",effect on the growth of HUVEC,"[1]; Example 1, 0.1-20 mM, 48 hrs",effect was confirmed
same,effect on the growth of HUVEC,[1]; [4],inhibitory effect was observed
same,inhibition at 20000 µM,"[1]; Homo sapiens, HUVEC, 48 hrs",40 to 80%
same,antagonism of the growth inhibitory effect by D-glucose,[1],antagonized
same,effect on the glucose up-take of HUVEC,HUVEC,inhibitory effect
same,effect on the glucose up-take accelerated by VEGF,HUVEC,inhibited
same,effect on the luminal formation,[2]; 10 days,effect was confirmed
same,effect on the luminal formation of HUVEC,[2],inhibitory effect was observed
same,inhibition at 20000 µM,"[2]; Homo sapiens, 20 mM",50 to 80%
same,antagonism of the luminal formation inhibitory effect by D-glucose,[2],no apparent effect
same,inhibition of the acceleration of luminal formation by VEGF,[2],inhibit the acceleration by VEGF
same,result of the basic safety test,[3],no problem
OC[C@@H](O)[C@@H](O)[C@@H](O)[C@@H](O)CO [allitol],result of the basic safety test,[3],no problem
VEGF,cell number in comparison with the control group,"[1]; 10 ng/mL, 48 hrs",1.7±0.5 times
same,effect on the glucose up-take of HUVEC,HUVEC,accelerated
same,luminal area in comparison to the control group,"[2]; 10 ng/mL, 10 days",2.8±0.6 times
"O=C(CO)[C@H](O)[C@H](O)[C@H](O)CO [PSI, D-psicose]",effect on the growth of HUVEC,[1]; [4],no remarkable effect
same,result of the basic safety test,[3],no problem
"O=CC[C@@H](O)[C@H](O)[C@H](O)CO [2DG, 2-deoxy-D-glucose]",effect on the growth of HUVEC,"[1]; Example 1, 0.1-20 mM, 48 hrs",effect was confirmed
same,effect on the growth of HUVEC,"[1]; Example 1, 0.1-20 mM, 48 hrs, listed as 2-deoxy-D-glucose",inhibit both
same,effect on the growth of HUVEC,[1]; [4],inhibitory effect was observed; also recorded: particularly strong action
same,inhibition at 1000 µM,"[1]; Homo sapiens, HUVEC, 1 mM, 48 hrs",70%
same,antagonism of the growth inhibitory effect by D-glucose,[1],no antagonism
same,effect on the glucose up-take of HUVEC,HUVEC,inhibitory effect
same,effect on the glucose up-take accelerated by VEGF,HUVEC,inhibited
same,effect on the luminal formation,[2]; 10 days,effect was confirmed
same,effect on the luminal formation,"[2]; 10 days, listed as 2-deoxy-D-glucose",inhibit both
same,effect on the luminal formation of HUVEC,[2],inhibitory effect was observed; also recorded: much stronger action
same,inhibition at 100 µM,"[2]; Homo sapiens, 0.1 mM",70%
same,inhibition at 500 µM,"[2]; Homo sapiens, 0.5 mM",95%
same,antagonism of the luminal formation inhibitory effect by D-glucose,[2],antagonized
same,inhibition of the acceleration of luminal formation by VEGF,[2],inhibit the acceleration by VEGF
"O=C[C@@H](O)[C@@H](O)[C@H](O)[C@H](O)CO [MAN, D-mannose]",effect on the growth of HUVEC,"[1]; Example 1, 0.1-20 mM, 48 hrs",effect was confirmed; also recorded: inhibitory effect for growth
same,effect on the growth of HUVEC,[1]; [4],inhibitory effect was observed
same,inhibition at 20000 µM,"[1]; Homo sapiens, HUVEC, 48 hrs",40 to 80%
same,antagonism of the growth inhibitory effect by D-glucose,[1],antagonized
same,effect on the glucose up-take of HUVEC,HUVEC,inhibitory effect
same,effect on the glucose up-take accelerated by VEGF,HUVEC,inhibited
same,effect on the luminal formation,[2]; 10 days,no influence

# From patent US20100222285A1, “METHOD OF CONTROLLING THE PROLIFERATION OF VASCULAR ENDOTHELIAL CELLS AND INHIBITING LUMEN FORMATION” (Rare Sugar Production Technical Research Laboratories, LLC, priority 2004, published 2010)
